Here are results for 19 compounds from patent US10759787B2, “Benzofuran derivative, preparation method thereof and use thereof in medicine” (Jiangsu Hengrui Medicine Co., Ltd., priority 2015, dated 2020).

In general, IC50 refers to the midpoint of a concentration-inhibition curve.

The test system of assay [1] is Pfeiffer cells. The assay can be described thus: In vitro anti-tumor cell growth assay (CellTiter-Glo), Pfeiffer. Type of assay: cell-based. The following applies: Homo sapiens, 120 h; Pfeiffer cells (A677G mutant), 5 days; read-out: IC50 for inhibiting the growth activity of tumor cells (Pfeiffer) in vitro. Here is the method:
Test Example 2. Assay for Determining In Vitro Anti-Tumor Cell Growth Activity of the Example Compounds of the Present Invention
This method was used to determinate the inhibitory effect of the compounds of the present invention on the growth activity of tumor cells (Pfeiffer or WSU-DLCL2) in vitro. Pfeiffer cells carry A677G mutant, and WSU-DLCL2 cells carry Y641F mutant.
The lymphoma suspension cell line (Pfeiffer or WSU-DLCL2) was cultured in a RPMI-1640 medium containing 10% inactivated Fetal Bovine Serum, 100 U/mL penicillin, and 100 μg/mL streptomycin, and incubated in an incubator with 5% carbon dioxide at 37° C. under a saturated humidity condition, and passaged every 3-4 days.
A cell sudpension was prepared with a fresh cell medium, added to a 96-well cell culture plate at 8000 cells/well (Pfeiffer) or 2000 cells/well (WSU-DLCL2), and incubated in 5% carbon dioxide at 37° C. incubator overnight. On the day of the experiment, the EZH2 test compounds (final concentration: 20000, 2000, 200, 20, 2, 0.2 nM) were added into the experimental wells for 3 parallel wells per group. A control well with the medium alone but without cells was set up to obtain the background luminescent value. The cell culture plate was incubated in an incubator with 5% carbon dioxide at 37° C. for 5 days.
After the compounds were applied to the cells for 5 days, the cell culture plate was placed at room temperature for 30 minutes, then a CellTiter-Glo reagent equal to the volume of cell culture medium was added to each well. The contents were mixed on a shaker for 10 minutes, and the […] signal values were recorded. The cell growth inhibition rate was calculated, and the formula was: cell growth inhibiton rate=[(negative control control−experimental group)/(negative control group−background luminescent value)]×100%. The IC50 values (half inhibition rate IC50, i.e., a drug concentration that is required for 50% cell growth inhibition rate) were calculated by software from the cell growth inhibiton rate and the corresponding concentration.
For orientation: ATP-based viability assays read luminescence as a measure of living cells.

For assay [2], the target named is EZH2-A677G (Homo sapiens (Human), UniProt Q15910, A677G). The assay can be described thus: EZH2-A677G mutant enzyme activity assay (HTRF). Type of assay: biochemical. The note with it: read-out: IC50 for inhibiting the activity of enzyme EZH2-A677G. The method, then:
Histone H3 biotin labeling and S-adenosyl methionine were respectively diluted to 50 nM and 50 μM with a kinase buffer, then added to a 384-well plate at 4 μl/well. The test compound was diluted with a kinase buffer (it was diluted from the highest concentration 30 μM in 10 fold concentration gradient to 7 concentration points), then added to the 384-well microtiter plate at 4 μl/well. The plate was incubated at room temperature for 2 hours. Histone H3K27 Me3 monoclonal antibody and Streptavidin-XL665 were diluted to 30 nM and 500 nM by HTRF detection buffer, then added to the 384-well microplate at 10 µl/well and incubated for 1 hour. A well without an EZH2 enzyme and a compound was used as a negative control, and a well with an EZH2 enzyme but without a compound was used as a positive control. […] The compound logarithm concentration vs the inhibition percentage relative to the positive control well was plotted using GraphPad Prism, then the IC50 values were calculated.
In general terms: In TR-FRET formats the signal depends on donor and acceptor labels being close together.

Chain of EZH2-A677G (Q15910 whole entry A677G): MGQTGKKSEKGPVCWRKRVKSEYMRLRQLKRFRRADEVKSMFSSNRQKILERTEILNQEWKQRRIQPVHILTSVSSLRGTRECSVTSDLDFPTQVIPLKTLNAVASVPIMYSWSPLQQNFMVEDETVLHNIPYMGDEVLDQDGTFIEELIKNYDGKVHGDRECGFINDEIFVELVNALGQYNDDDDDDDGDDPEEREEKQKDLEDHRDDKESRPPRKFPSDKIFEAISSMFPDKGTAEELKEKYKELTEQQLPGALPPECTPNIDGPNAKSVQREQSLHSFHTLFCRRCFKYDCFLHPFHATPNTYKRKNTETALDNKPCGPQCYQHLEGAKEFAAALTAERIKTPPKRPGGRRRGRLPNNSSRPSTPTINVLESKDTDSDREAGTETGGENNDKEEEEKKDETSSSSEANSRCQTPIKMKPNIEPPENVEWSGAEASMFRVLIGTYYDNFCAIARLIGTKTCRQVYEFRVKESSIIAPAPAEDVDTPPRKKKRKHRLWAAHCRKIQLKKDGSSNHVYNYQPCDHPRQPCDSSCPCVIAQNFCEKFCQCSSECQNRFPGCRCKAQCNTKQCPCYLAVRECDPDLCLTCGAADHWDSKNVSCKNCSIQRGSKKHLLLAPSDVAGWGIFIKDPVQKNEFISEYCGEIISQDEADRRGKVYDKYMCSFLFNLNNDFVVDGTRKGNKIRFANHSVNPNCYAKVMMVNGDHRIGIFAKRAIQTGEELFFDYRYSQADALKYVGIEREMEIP
Chain of EZH2-A677G (O75530 whole entry partner): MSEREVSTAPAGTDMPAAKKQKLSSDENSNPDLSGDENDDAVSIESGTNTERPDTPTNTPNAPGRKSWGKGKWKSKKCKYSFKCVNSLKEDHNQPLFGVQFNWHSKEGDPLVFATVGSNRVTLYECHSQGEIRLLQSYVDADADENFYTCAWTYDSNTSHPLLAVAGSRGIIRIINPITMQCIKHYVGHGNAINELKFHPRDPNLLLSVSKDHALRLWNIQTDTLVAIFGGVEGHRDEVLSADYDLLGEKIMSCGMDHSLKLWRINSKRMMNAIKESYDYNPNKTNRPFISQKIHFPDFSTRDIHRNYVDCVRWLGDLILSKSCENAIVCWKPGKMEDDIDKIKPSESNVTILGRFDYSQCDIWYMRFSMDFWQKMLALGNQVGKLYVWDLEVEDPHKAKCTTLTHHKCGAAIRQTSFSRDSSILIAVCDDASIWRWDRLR
Chain of EZH2-A677G (Q15022 whole entry partner): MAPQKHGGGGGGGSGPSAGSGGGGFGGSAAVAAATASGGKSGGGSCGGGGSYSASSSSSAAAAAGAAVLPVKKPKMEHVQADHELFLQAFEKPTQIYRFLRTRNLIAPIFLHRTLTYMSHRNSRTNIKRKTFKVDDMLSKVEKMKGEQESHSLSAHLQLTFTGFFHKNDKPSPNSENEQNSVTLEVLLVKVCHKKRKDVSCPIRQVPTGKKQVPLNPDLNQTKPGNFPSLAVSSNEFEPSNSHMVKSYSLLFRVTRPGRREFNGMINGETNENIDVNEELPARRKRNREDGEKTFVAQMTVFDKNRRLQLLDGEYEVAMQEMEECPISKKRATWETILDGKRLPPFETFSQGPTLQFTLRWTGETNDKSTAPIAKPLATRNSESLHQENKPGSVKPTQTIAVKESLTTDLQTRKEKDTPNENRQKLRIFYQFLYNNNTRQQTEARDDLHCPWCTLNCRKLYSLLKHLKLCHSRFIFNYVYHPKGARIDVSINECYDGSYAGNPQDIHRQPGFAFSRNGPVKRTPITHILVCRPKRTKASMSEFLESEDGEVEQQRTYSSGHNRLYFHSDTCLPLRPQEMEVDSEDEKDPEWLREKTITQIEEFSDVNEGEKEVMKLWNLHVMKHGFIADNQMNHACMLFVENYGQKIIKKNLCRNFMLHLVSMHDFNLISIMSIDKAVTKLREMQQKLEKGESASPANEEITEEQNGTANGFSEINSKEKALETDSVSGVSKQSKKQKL
Chain of EZH2-A677G (Q09028 whole entry partner): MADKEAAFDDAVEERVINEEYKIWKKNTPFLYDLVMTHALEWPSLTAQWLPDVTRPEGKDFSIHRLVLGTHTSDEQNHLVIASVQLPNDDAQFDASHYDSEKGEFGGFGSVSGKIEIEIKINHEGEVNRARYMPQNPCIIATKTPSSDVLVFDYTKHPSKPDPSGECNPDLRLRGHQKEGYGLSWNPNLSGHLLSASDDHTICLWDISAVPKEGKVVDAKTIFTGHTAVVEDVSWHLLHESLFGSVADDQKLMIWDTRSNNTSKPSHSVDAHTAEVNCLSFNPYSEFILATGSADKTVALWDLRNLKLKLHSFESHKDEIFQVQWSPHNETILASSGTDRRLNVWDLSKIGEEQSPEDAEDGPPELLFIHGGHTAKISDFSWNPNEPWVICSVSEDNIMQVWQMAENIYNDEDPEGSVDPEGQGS
Chain of EZH2-A677G (Q6ZN18 whole entry partner): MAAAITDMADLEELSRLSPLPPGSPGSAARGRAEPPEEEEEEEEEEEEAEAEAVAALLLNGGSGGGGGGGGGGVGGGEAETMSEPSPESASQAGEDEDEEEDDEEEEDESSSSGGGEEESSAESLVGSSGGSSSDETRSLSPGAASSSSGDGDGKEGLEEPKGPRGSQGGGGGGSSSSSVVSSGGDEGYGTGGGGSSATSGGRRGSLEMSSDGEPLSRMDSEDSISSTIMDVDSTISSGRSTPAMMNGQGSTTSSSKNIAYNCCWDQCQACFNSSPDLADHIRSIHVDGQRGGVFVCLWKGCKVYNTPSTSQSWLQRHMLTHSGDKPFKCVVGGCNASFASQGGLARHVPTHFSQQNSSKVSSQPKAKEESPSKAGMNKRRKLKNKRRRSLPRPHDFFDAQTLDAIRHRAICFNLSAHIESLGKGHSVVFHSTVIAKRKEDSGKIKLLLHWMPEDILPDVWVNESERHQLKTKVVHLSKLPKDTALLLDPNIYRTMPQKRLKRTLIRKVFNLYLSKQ

Consider `CCN(c1cc2oc(CN3CCCCC3)cc2c(C(=O)NCc2c(OC)cc(C)[nH]c2=O)c1C)C1CCOCC1` [Example 4, 6-(Ethyl(tetrahydro-2H-pyran-4-yl)amino)-N-((4-methoxy-6-methyl-2-oxo-1,2-dihydropyridin-3-yl)methyl)-5-methyl-2-(piperidin-1-ylmethyl)benzofuran-4-carboxamide], for which the figures for the IC50 in assay [1] and in assay [2] were 19 nM and 14 nM, respectively.
On the same counts, the results for `CCc1c(N(CC)C2CCOCC2)cc2oc(CN3CCCC3)cc2c1C(=O)NCc1c(OC)cc(C)[nH]c1=O` [Example 8, 5-Ethyl-6-(ethyl(tetrahydro-2H-pyran-4-yl)amino)-N-((4-methoxy-6-methyl-2-oxo-1,2-dihydropyridin-3-yl)methyl)-2-(pyrrolidin-1-ylmethyl)benzofuran-4-carboxamide] are 12 nM and 6.2 nM.
For `CCc1c(N(CC)C2CCOCC2)cc2oc(CN(C)C)cc2c1C(=O)NCc1c(OC)cc(C)[nH]c1=O` [Example 13, 2-((Dimethylamino)methyl)-5-ethyl-6-(ethyl(tetrahydro-2H-pyran-4-yl)amino)-N-((4-methoxy-6-methyl-2-oxo-1,2-dihydropyridin-3-yl)methyl)benzofuran-4-carboxamide], in that order: 9 nM and 2.9 nM.
For `CCc1c(N(CC2CC2)C2CCOCC2)cc2oc(C3CC3)cc2c1C(=O)NCc1c(OC)cc(C)[nH]c1=O` [Example 28, 2-Cyclopropyl-6-((cyclopropylmethyl)(tetrahydro-2H-pyran-4-yl)amino)-5-ethyl-N-((4-methoxy-6-methyl-2-oxo-1,2-dihydropyridin-3-yl)methyl)benzofuran-4-carboxamide], in that order: 78 nM and 6.8 nM.
On to `CCc1c(N(CC2CC2)C2CCN(CC(F)(F)F)CC2)cc2occc2c1C(=O)NCc1c(OC)cc(C)[nH]c1=O` [Example 34, 6-((Cyclopropylmethyl)(1-(2,2,2-trifluoroethyl)piperidin-4-yl)amino)-5-ethyl-N-((4-methoxy-6-methyl-2-oxo-1,2-dihydropyridin-3-yl)methyl)benzofuran-4-carboxamide], for which the IC50 in assay [2] is 14 nM.
As for `CCN(c1cc2oc(C#N)cc2c(C(=O)NCc2c(OC)cc(C)[nH]c2=O)c1C)C1CCOCC1` [Example 30, 2-Cyano-6-(ethyl(tetrahydro-2H-pyran-4-yl)amino)-N-((4-methoxy-6-methyl-2-oxo-1,2-dihydropyridin-3-yl)methyl)-5-methylbenzofuran-4-carboxamide], the IC50 in assay [1] was found to be 17 nM; in assay [2], 0.8 nM.
On the same counts, the results for `CCc1c(N(CC)C2CCOCC2)cc2oc(C3CCN(C(C)C)CC3)cc2c1C(=O)NCc1c(OC)cc(C)[nH]c1=O` [Example 10, 5-Ethyl-6-(ethyl(tetrahydro-2H-pyran-4-yl)amino)-2-(1-isopropylpiperidin-4-yl)-N-((4-methoxy-6-methyl-2-oxo-1,2-dihydropyridin-3-yl)methyl)benzofuran-4-carboxamide] are 5 nM and 1.7 nM.
As for `CCN(c1cc2occc2c(C(=O)NCc2c(OC)cc(C)[nH]c2=O)c1Cl)C1CCOCC1` [Example 22, 5-Chloro-6-(ethyl(tetrahydro-2H-pyran-4-yl)amino)-N-((4-methoxy-6-methyl-2-oxo-1,2-dihydropyridin-3-yl)methyl)benzofuran-4-carboxamide], the half-maximal inhibitory concentration (IC50) in assay [2] worked out at 6.5 nM.
Turning to `CCc1c(N(CC)C2CCOCC2)cc2oc(CN3CCC(F)(F)CC3)cc2c1C(=O)NCc1c(OC)cc(C)[nH]c1=O` [Example 7, 2-((4,4-Difluoropiperidin-1-yl)methyl)-5-ethyl-6-(ethyl(tetrahydro-2H-pyran-4-yl)amino)-N-((4-methoxy-6-methyl-2-oxo-1,2-dihydropyridin-3-yl)methyl)benzofuran-4-carboxamide], the figures for the concentration for half-maximal inhibition (IC50) in assay [1] and in assay [2] were 11 nM and 3.5 nM, respectively.
For `CCc1c(N(CC)C2CCOCC2)cc2oc(C3CCN(C)CC3)cc2c1C(=O)NCc1c(OC)cc(C)[nH]c1=O` [Example 17, 5-Ethyl-6-(ethyl(tetrahydro-2H-pyran-4-yl)amino)-N-((4-methoxy-6-methyl-2-oxo-1,2-dihydropyridin-3-yl)methyl)-2-(1-methylpiperidin-4-yl)benzofuran-4-carboxamide], in that order: 9 nM and 9.9 nM.
In the case of `CCc1c(N(CC)C2CCOCC2)cc2oc(CN3CCN(C(C)C)CC3)cc2c1C(=O)NCc1c(OC)cc(C)[nH]c1=O` [Example 5, 5-Ethyl-6-(ethyl(tetrahydro-2H-pyran-4-yl)amino)-2-((4-isopropylpiperazin-1-yl)methyl)-N-((4-methoxy-6-methyl-2-oxo-1,2-dihydropyridin-3-yl)methyl)benzofuran-4-carboxamide], the IC50 turned out to be 19 nM in assay [1] and 1.2 nM in assay [2].
On the same counts, the results for `CCc1c(N(CC)C2CCOCC2)cc2oc(CN3CCN(C)CC3)cc2c1C(=O)NCc1c(OC)cc(C)[nH]c1=O` [Example 12, 5-Ethyl-6-(ethyl(tetrahydro-2H-pyran-4-yl)amino)-N-((4-methoxy-6-methyl-2-oxo-1,2-dihydropyridin-3-yl)methyl)-2-((4-methylpiperazin-1-yl)methyl)benzofuran-4-carboxamide] are 22 nM and 10 nM.
In the case of `CCc1c(N(CC)C2CCOCC2)cc2oc(C3CCCC3)cc2c1C(=O)NCc1c(C)cc(C)[nH]c1=O` [Example 14, 2-Cyclopentyl-N-((4,6-dimethyl-2-oxo-1,2-dihydropyridin-3-yl)methyl)-5-ethyl-6-(ethyl(tetrahydro-2H-pyran-4-yl)amino)benzofuran-4-carboxamide], the IC50 in assay [2] was 9.6 nM.
On to `CCc1c(N(CC)C2CCOCC2)cc2oc(CN3CCN(CC(C)(C)O)CC3)cc2c1C(=O)NCc1c(C)cc(C)[nH]c1=O` [Example 11, N-((4,6-Dimethyl-2-oxo-1,2-dihydropyridin-3-yl)methyl)-5-ethyl-6-(ethyl(tetrahydro-2H-pyran-4-yl)amino)-2-((4-(2-hydroxy-2-methylpropyl)piperazin-1-yl)methyl)benzofuran-4-carboxamide], for which the IC50 in assay [1] worked out at 22 nM; in assay [2], 5.6 nM.
For `CCN(c1cc2oc(C(F)(F)F)cc2c(C(=O)NCc2c(OC)cc(C)[nH]c2=O)c1C)C1CCOCC1` [Example 29, 6-(Ethyl(tetrahydro-2H-pyran-4-yl)amino)-N-((4-methoxy-6-methyl-2-oxo-1,2-dihydropyridin-3-yl)methyl)-5-methyl-2-(trifluoromethyl)benzofuran-4-carboxamide], in that order: 17 nM and 2.7 nM.
In the case of `CCc1c(N(CC)C2CCOCC2)cc2oc(F)cc2c1C(=O)NCc1c(OC)cc(C)[nH]c1=O` [Example 27, 5-Ethyl-6-(ethyl(tetrahydro-2H-pyran-4-yl)amino)-2-fluoro-N-((4-methoxy-6-methyl-2-oxo-1,2-dihydropyridin-3-yl)methyl)benzofuran-4-carboxamide], the IC50 in assay [1] was found to be 4 nM; in assay [2], 3.5 nM.
On the same counts, the results for `CCc1c(N(CC)C2CCOCC2)cc2oc(CN3CCOCC3)cc2c1C(=O)NCc1c(OC)cc(C)[nH]c1=O` [Example 6, 5-Ethyl-6-(ethyl(tetrahydro-2H-pyran-4-yl)amino)-N-((4-methoxy-6-methyl-2-oxo-1,2-dihydropyridin-3-yl)methyl)-2-(morpholinomethyl)benzofuran-4-carboxamide] are 3 nM and 7.8 nM.
On the same counts, the results for `CCN(c1cc2oc(C3=CCN(C)CC3)cc2c(C(=O)NCc2c(C)cc(C)[nH]c2=O)c1C)C1CCOCC1` [Example 16, N-((4,6-Dimethyl-2-oxo-1,2-dihydropyridin-3-yl)methyl)-6-(ethyl(tetrahydro-2H-pyran-4-yl)amino)-5-methyl-2-(1-methyl-1,2,3,6-tetrahydropyridin-4-yl)benzofuran-4-carboxamide] are 18 nM and 31 nM.
As to `CCN(c1cc2oc(C3CCN(C)CC3)cc2c(C(=O)NCc2c(C)cc(C)[nH]c2=O)c1C)C1CCOCC1` [Example 15, N-((4,6-Dimethyl-2-oxo-1,2-dihydropyridin-3-yl)methyl)-6-(ethyl(tetrahydro-2H-pyran-4-yl)amino)-5-methyl-2-(1-methylpiperidin-4-yl)benzofuran-4-carboxamide], the values for the half-inhibitory concentration (IC50) in assay [1] and in assay [2] were 13 nM and 16 nM, respectively.
